According to publication PMC6479789, “High Consistency of Structure-Based Design and X-Ray Crystallography: Design, Synthesis, Kinetic Evaluation and Crystallographic Binding Mode Determination of Biphenyl-N-acyl-β-D-Glucopyranosylamines as Glycogen Phosphorylase Inhibitors” (Molecules, 2019):

What was measured:
Format in all cases: biochemical
hlGPa = biological target: T1, hlGPa (Homo sapiens, UniProt P06737); test: inorganic phosphate release, glycogen synthesis direction
T1 construct: gene PYGL; recombinant human liver GPb (produced as described previously) converted to the phosphorylated a form with truncated gamma subunit of rabbit phosphorylase kinase
T1 sequence (P06737 2-847): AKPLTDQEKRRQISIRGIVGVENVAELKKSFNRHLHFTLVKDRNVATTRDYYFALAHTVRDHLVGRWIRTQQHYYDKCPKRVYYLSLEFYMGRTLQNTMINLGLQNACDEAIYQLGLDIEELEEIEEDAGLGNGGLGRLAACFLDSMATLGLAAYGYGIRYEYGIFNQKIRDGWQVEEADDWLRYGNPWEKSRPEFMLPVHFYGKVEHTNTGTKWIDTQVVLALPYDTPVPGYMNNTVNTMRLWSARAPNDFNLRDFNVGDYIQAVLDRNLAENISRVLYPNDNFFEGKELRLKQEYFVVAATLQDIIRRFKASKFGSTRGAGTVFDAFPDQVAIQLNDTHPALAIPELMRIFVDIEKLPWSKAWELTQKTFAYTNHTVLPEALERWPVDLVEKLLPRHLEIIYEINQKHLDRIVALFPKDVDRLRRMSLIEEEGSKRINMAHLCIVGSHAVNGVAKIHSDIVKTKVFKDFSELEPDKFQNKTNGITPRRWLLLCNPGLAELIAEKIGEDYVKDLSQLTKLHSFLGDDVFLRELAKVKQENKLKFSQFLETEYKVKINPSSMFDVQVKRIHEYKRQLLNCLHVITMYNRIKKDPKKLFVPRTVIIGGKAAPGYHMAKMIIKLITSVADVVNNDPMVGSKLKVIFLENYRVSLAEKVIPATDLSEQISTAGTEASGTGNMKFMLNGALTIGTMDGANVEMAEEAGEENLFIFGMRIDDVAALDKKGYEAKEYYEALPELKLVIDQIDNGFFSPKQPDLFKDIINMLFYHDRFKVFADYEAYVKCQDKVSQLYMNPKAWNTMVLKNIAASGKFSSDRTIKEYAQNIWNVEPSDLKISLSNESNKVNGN
From the text: inorganic phosphate release, glycogen synthesis direction on hlGPa

rmGPa = biological target: T2, rmGPa (Oryctolagus cuniculus, UniProt P00489); test: as above
T2 construct: gene PYGM; native rabbit skeletal muscle GPb converted to the phosphorylated a form with truncated gamma subunit of rabbit phosphorylase kinase
T2 sequence (P00489 2-843): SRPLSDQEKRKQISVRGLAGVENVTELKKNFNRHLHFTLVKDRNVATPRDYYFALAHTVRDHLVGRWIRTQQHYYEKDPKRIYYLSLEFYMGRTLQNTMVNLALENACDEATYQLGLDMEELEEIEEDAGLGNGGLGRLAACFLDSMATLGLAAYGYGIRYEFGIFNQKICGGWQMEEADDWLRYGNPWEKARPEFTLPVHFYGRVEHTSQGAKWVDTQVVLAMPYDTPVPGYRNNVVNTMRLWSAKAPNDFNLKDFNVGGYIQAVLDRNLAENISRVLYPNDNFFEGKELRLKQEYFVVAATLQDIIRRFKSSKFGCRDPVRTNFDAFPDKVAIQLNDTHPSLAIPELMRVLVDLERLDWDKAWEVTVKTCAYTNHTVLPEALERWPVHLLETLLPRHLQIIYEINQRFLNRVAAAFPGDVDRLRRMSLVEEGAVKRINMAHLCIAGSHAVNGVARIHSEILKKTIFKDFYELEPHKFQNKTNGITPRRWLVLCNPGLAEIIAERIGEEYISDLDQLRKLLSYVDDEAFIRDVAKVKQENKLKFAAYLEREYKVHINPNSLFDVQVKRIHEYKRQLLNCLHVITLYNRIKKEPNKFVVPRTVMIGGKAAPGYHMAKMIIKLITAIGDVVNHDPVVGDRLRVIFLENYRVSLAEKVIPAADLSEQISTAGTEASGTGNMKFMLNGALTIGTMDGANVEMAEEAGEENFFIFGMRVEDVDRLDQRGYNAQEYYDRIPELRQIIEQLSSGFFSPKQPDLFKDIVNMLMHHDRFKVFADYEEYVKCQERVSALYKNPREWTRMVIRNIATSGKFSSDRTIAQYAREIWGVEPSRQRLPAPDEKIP
From the text: inorganic phosphate release, glycogen synthesis direction on rmGPa

rmGPb = biological target: T3, rmGPb (Oryctolagus cuniculus, UniProt P00489); test: inorganic phosphate release, glycogen synthesis direction; crystal structure of the complex also solved
T3 construct: gene PYGM; native, purified from rabbit skeletal muscles (Fischer and Krebs), unphosphorylated b form
T3 sequence (P00489 2-843): T2 sequence (P00489 2-843)
From the text: inorganic phosphate release, glycogen synthesis direction; crystal structure of the complex also solved on rmGPb

Ki (hlGPa) [µM] | Ki (rmGPa) [µM] | Ki (rmGPb) [µM] | Compound
45.6 ± 1.8 | 31.4 ± 2.2 | 56.1 ± 4.4 | O=C(N[C@@H]1O[C@H](CO)[C@@H](O)[C@H](O)[C@H]1O)c1cccc(-c2ccc(F)cc2)c1 [compound 3, 4’-fluoro-N-(3,4,5-trihydroxy-6-(hydroxymethyl)tetrahydro-2H-pyran-2-yl)biphenyl-3-carboxamide]
19.4 ± 0.2 | 12.8 ± 0.6 | 9.7 ± 0.7 | O=C(N[C@@H]1O[C@H](CO)[C@@H](O)[C@H](O)[C@H]1O)c1ccc(-c2ccccc2)cc1 [compound 4, N-(3,4,5-trihydroxy-6-(hydroxymethyl)tetrahydro-2H-pyran-2-yl)biphenyl-4-carboxamide]
